Results: US9073935B2, “Substituted benzylspiroindolin-2-one analogs as positive allosteric modulators of the muscarinic acetylcholine receptor M1” (VANDERBILT UNIVERSITY, priority 2011, dated 2015)
pEC50: −log10 of the molar value.

Target: T1, mAChR M1 (UniProt P11229)
T1 sequence (P11229 1-460): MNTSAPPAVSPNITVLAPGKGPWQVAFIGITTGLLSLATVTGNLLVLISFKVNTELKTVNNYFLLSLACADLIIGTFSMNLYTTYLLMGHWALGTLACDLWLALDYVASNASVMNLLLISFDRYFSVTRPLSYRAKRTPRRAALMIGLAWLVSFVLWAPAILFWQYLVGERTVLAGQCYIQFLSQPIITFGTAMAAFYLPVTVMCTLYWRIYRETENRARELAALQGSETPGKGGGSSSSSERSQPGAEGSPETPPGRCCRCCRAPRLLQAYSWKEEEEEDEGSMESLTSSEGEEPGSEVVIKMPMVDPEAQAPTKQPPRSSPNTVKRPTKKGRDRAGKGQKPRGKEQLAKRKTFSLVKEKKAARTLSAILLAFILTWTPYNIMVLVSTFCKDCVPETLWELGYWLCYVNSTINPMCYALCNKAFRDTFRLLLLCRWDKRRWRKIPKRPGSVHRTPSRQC
Test: mAChR M1 cell-based functional assay (calcium mobilization, potentiation of EC20 acetylcholine response)
Conditions: for Emax: % ACh maximum at 30 μM; for pEC50: CHO-K1 cells expressing mAChR M1, increase in EC20 acetylcholine response, >10 μM estimated where no plateau in the curve
Method: Chinese hamster ovary (CHO-K1) cells stably expressing rat (r)M1 were purchased from the American Type Culture Collection and cultured according to their indicated protocol. […] To make stable rM2, hM2, rM3, hM4, and rM4 cell lines for use in calcium mobilization assays, these cells also were stably transfected with a chimeric G-protein (Gqi5) (provided by B. R. Conklin, University of California, San Francisco) using Lipofectamine 2000. rM1, hM1, rM3, hM3, rM5, and hM5 cells were grown in Ham's F-12 medium containing 10% heat-inactivated fetal bovine serum (FBS), 20 mM HEPES, and 50 μg/mL G418 sulfate. rM2-Gqi5, hM2-Gqi5, and hM4-Gqi5 cells were grown in the same medium also containing 500 μg/mL Hygromycin B. Stable rM4-Gqi5 cells were grown in DMEM containing 10% heat-inactivated FBS, 20 mM HEPES, 400 μg/mL G418 sulfate, and 500 μg/mL Hygromycin B.
For high throughput measurement of agonist-evoked increases in intracellular calcium, CHO-K1 cells stably expressing muscarinic receptors were plated in growth medium lacking G418 and hygromycin at 15,000 cells/20 μL/well in Greiner 384-well black-walled, tissue culture (TC)-treated, clear-bottom plates (VWR). Cells were incubated overnight at 37° C. and 5% CO2. […] Compound master plates were formatted in an 11 point CRC format (1:3 dilutions) in 100% DMSO with a starting concentration of 10 mM using the BRAVO liquid handler (Agilent). Test compound CRCs were then transferred to daughter plates ([…]) using the Echo acoustic plate reformatter (Labcyte, Sunnyvale, Calif.) and then diluted into assay buffer (40 μL) to a 2× stock using a Thermo Fisher Combi (Thermo Fisher Scientific, Waltham, Mass.).
Calcium flux was measured using the Functional Drug Screening System (FDSS) 6000 (Hamamatsu Corporation, Tokyo, Japan) as an increase in the fluorescent static ratio. Compounds were applied to cells (20 μL, 2×) using the automated system of the FDSS 6000 at 4 s into the 300 s protocol and the data were collected at 1 Hz. […] Agonist activity was analyzed as a concentration-dependent increase in calcium mobilization upon compound addition. Positive allosteric modulator activity was analyzed as a concentration-dependent increase in the EC20 acetylcholine response. Antagonist activity was analyzed as a concentration-dependent decrease in the EC80 acetylcholine response. Concentration-response curves were generated using a four-parameter logistical equation in XLfit curve fitting software (IDBS, Bridgewater, N.J.) for Excel (Microsoft, Redmond, Wash.) or Prism (GraphPad Software, Inc., San Diego, Calif.).
The calcium mobilization assay was also used to determine “efficacy”. In the context of the assays carried out for the data in Table II, “efficacy” (% ACh at 30 μM) is defined as the maximal response in the calcium flux as determined by the sigmoidal curve fit of the concentration response curve, or in the absence of an acceptable curve fit, the response recorded at 30 μM test compound, stated as a percentage of the response elicited by a concentration of Ach that induces approximately 80% of a maximal (i.e. saturating) ACh response.
Substituted benzylspiroindolin-2-one analogs were synthesized as described above. Activity (EC50 and Emax) was determined in the mAChR M1 cell-based functional assay as described above and the data are shown in Table III. The compound number corresponds to the compound numbers used in Tables I and II.

Row | Compound | Emax [%] | pEC50
1 | Cn1cc(-c2ccc(CN3C(=O)C4(CCN(Cc5ccccc5)C4)c4ccccc43)c(F)c2)cn1 (centres unmarked) [Compound B57] | 36 | < 5.00
2 | Cn1cc(-c2ccc(CN3C(=O)C4(CCN(CC5CCCCC5)C4)c4ccccc43)c(F)c2)cn1 (single isomer, unassigned) [Compound B72] | 36 | < 5.00
3 | Cn1cc(-c2ccc(CN3C(=O)C4(CCN(C(=O)c5ccccc5)C4)c4ccccc43)c(F)c2)cn1 (single isomer, unassigned) [Compound B45] | 38 | 5.28
4 | CN1CCC(N2CCC3(CC2)C(=O)N(Cc2ccc(-c4cnn(C)c4)cc2F)c2ccccc23)C1 (centres unmarked) [Compound B39] | 55 | 5.33
5 | Cn1cc(-c2ccc(CN3C(=O)C4(CCN(CC5CC5)C4)c4ccccc43)c(F)c2)cn1 (centres unmarked) [Compound B11] | 60 | 5.62
6 | Cn1cc(-c2ccc(CN3C(=O)C4(CCN(C5CCCOC5)C4)c4ccccc43)c(F)c2)cn1 (single isomer, unassigned) [Compound B35] | 57 | 5.41
7 | CN1CCC2(C1)C(=O)N(Cc1ccc(-c3cnn(C)c3)cc1F)c1ccccc12 (racemic) [Compound B18, 1-(2-fluoro-4-(1-methyl-1H-pyrazol-4-yl)benzyl)-1′-methylspiro[indoline-3,3′-pyrrolidin]-2-one] | 62 | 5.54
8 | Cn1cc(-c2ccc(CN3C(=O)C4(CCN(C5CCCOC5)C4)c4ccccc43)c(F)c2)cn1 (centres unmarked) [Compound B19] | 62 | 5.54
9 | Cn1cc(-c2ccc(CN3C(=O)C4(CCCO4)c4ccccc43)cc2)cn1 (centres unmarked) [Compound B56, 1′-(4-(1-methyl-1H-pyrazol-4-yl)benzyl)-4,5-dihydro-3H-spiro[furan-2,3′-indolin]-2′-one] | 45 | 5.11
10 | CC(=O)N1CCC2(C1)C(=O)N(Cc1ccc(-c3cnn(C)c3)cc1F)c1ccccc12 (centres unmarked) [Compound B63, 1′-acetyl-1-(2-fluoro-4-(1-methyl-1H-pyrazol-4-yl)benzyl)spiro[indoline-3,3′-pyrrolidin]-2-one] | 54 | < 5.00
11 | Cn1cc(-c2ccc(CN3C(=O)C4(CCN(C5CCCOC5)C4)c4ccccc43)c(F)c2)cn1 (single isomer, unassigned) [Compound B68] | 60 | < 5.00
12 | Cn1cc(-c2ccc(CN3C(=O)C4(OCCO4)c4ccccc43)c(F)c2)cn1 [Compound B22, 1′-(2-fluoro-4-(1-methyl-1H-pyrazol-4-yl)benzyl)spiro[[1,3]dioxolane-2,3′-indolin]-2′-one] | 86 | 5.49
13 | Cn1cc(-c2ccc(CN3C(=O)C4(CCN(C5CCCOC5)CC4)c4ccccc43)c(F)c2)cn1 (centres unmarked) [Compound B38] | 50 | 5.33
14 | Cn1cc(-c2ccc(CN3C(=O)C4(CCN(c5ncccn5)C4)c4ccccc43)c(F)c2)cn1 (centres unmarked) [Compound B7, 1-(2-fluoro-4-(1-methyl-1H-pyrazol-4-yl)benzyl)-1′-(pyrimidin-2-yl)spiro[indoline-3,3′-pyrrolidin]-2-one] | 63 | 5.72
15 | CC1CCCC1N1CCC2(C1)C(=O)N(Cc1ccc(-c3cnn(C)c3)cc1F)c1ccccc12 (centres unmarked) [Compound B54] | 51 | 5.15
16 | Cn1cc(-c2ccc(CN3C(=O)C4(CCN(C5CCCC5)CC4)c4ccccc43)c(F)c2)cn1 [Compound B46] | 34 | 5.26
17 | Cn1cc(-c2ccc(CN3C(=O)C4(CCN(C5CCNC5)CC4)c4ccccc43)c(F)c2)cn1 (centres unmarked) [Compound B33] | 52 | 5.41
18 | Cn1cc(-c2ccc(CN3C(=O)C4(CCN(C5CCCC5)C4)c4ccccc43)c(F)c2)cn1 (centres unmarked) [Compound B3, 1′-cyclopentyl-1-(2-fluoro-4-(1-methyl-1H-pyrazol-4-yl)benzyl)spiro[indoline-3,3′-pyrrolidin]-2-one] | 61 | 5.80
19 | Cn1cc(-c2ccc(CN3C(=O)C4(CCN(C(=O)C5CC5)C4)c4ccccc43)c(F)c2)cn1 (centres unmarked) [Compound B41] | 56 | 5.31

Row | Compound | Emax [%] | pEC50
20 | Cn1cc(-c2ccc(CN3C(=O)C4(CCN(C(=O)C5CCC5)C4)c4ccccc43)c(F)c2)cn1 (centres unmarked) [Compound B51] | 50 | 5.21
21 | CN1CCC2(CC1)C(=O)N(Cc1c(F)cc(-c3ccc4nn(C)cc4c3)cc1F)c1ccccc12 [Compound B77] | 26 | < 5.00
22 | CC(C)N1CCC2(C1)C(=O)N(Cc1ccc(-c3cnn(C)c3)cc1F)c1ccccc12 (centres unmarked) [Compound B37] | 32 | 5.36
23 | CCN1CCC2(C1)C(=O)N(Cc1ccc(-c3cnn(C)c3)cc1F)c1ccccc12 (centres unmarked) [Compound B24] | 65 | 5.49
24 | Cn1cc(-c2ccc(CN3C(=O)C4(CCN(C5CCCCC5F)C4)c4ccccc43)c(F)c2)cn1 (centres unmarked) [Compound B20] | 67 | 5.52
25 | Cn1cc(-c2ccc(CN3C(=O)C4(CCN(C5CCCOC5)C4)c4ccccc43)c(F)c2)cn1 (single isomer, unassigned) [Compound B34] | 28 | 5.41
26 | Cn1cc(-c2ccc(CN3C(=O)C4(CCN(C5CCCCC5)C4)c4ccccc43)c(F)c2)cn1 (centres unmarked) [Compound B5] | 66 | 5.74
27 | CN1CCC2(CC1)C(=O)N(Cc1c(F)cc(-c3ccc4c(c3)CC(=O)N4)cc1F)c1ccccc12 [Compound B78] | 38 | 5.18
28 | Cn1cc(-c2cc(F)c(CN3C(=O)C4(CCN(C5CCCC5)C4)c4ccccc43)c(F)c2)cn1 (centres unmarked) [Compound B4] | 72 | 5.77
29 | Cn1cc(-c2ccc(CN3C(=O)C4(CCN(C5CCC(F)(F)CC5)C4)c4ccccc43)c(F)c2)cn1 (centres unmarked) [Compound B59] | 53 | < 5.00
30 | Cc1nn(C)cc1-c1ccc(CN2C(=O)C3(CCN(C4CCCC4)C3)c3ccccc32)c(F)c1 (centres unmarked) [Compound B30] | 51 | 5.43
31 | CN1CCC(N2CCC3(C2)C(=O)N(Cc2ccc(-c4cnn(C)c4)cc2F)c2ccccc23)CC1 (centres unmarked) [Compound B27] | 63 | 5.46
32 | Cn1cc(-c2ccc(CN3C(=O)C4(CCN(C5CCCCC5F)CC4)c4ccccc43)c(F)c2)cn1 (centres unmarked) [Compound B9] | 32 | 5.64
33 | CN1CCC2(C1)C(=O)N(Cc1c(F)cc(-c3cccc4nn(C)cc34)cc1F)c1ccccc12 (centres unmarked) [Compound B75] | 66 | 5.27
34 | Cn1cc(-c2ccc(CN3C(=O)C4(CCN(C5CCCC5)C4)c4ccccc43)cc2F)cn1 (centres unmarked) [Compound B8] | 36 | 5.70
35 | Cn1cc(-c2ccc(CN3C(=O)C4(CCN(CC5CCCCC5)C4)c4ccccc43)c(F)c2)cn1 (centres unmarked) [Compound B61] | 36 | < 5.00
36 | Cn1cc(-c2ccc(CN3C(=O)C4(CCN(C5CCCOC5)C4)c4ccccc43)c(F)c2)cn1 (single isomer, unassigned) [Compound B67] | 44 | < 5.00
37 | Cn1cc(-c2ccc(CN3C(=O)C4(CCN(C5CCCC5)C4)c4ccccc43)c(F)c2F)cn1 (centres unmarked) [Compound B12] | 52 | 5.62
